Results published in ChEMBL document CHEMBL1201862, “PubChem BioAssay data set” (2004).
One block for each compound: values may come before it. Activity calls are given as the source filed them.

Key:
[1] = molecular target: T1, Corticotropin-releasing factor receptor 2/Corticotropin-releasing factor-binding protein (Homo sapiens, UniProt P24387+Q13324); experiment: activators of CRF receptor 2 with binding protein – uHTS hits, confirmation (AID 602473); type: functional; conditions: read-out: EC50_Mean
T1 sequence (Q13324 whole entry): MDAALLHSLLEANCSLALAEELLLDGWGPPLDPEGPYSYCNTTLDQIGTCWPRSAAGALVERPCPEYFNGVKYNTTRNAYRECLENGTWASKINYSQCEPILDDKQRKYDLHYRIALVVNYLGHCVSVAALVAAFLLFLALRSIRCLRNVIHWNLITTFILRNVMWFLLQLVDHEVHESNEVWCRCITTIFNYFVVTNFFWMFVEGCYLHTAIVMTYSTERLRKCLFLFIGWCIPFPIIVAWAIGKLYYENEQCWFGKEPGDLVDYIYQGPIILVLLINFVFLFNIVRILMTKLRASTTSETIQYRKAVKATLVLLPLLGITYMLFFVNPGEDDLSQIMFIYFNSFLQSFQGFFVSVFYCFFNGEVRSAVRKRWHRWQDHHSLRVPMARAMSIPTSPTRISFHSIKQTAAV
T1 sequence (P24387 whole entry): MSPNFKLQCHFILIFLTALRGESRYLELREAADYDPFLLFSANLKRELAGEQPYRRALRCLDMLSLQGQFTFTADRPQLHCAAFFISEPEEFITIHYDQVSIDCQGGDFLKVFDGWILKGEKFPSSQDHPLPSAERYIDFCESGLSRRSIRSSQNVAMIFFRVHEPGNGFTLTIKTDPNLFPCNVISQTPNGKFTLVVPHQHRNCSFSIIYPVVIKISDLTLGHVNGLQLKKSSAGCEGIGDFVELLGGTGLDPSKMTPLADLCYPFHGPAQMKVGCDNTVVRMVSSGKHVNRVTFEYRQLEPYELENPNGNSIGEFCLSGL

[2] = molecular target: T2, Heat shock factor protein 1 (Mus musculus, UniProt P38532); experiment: inhibition of MG132-induced HSE-luciferase signal, confirmation, cell-based, NIH3T3, luminescence, dose retest (AID 2382); type: functional;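 note: NIH3T3 fibroblasts with HSF1-driven luciferase reporter stressed by proteasome inhibitor MG132; luminescence from HSF1-driven luciferase expression after 8 hours of MG132 stress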
T2 sequence (P38532 whole entry): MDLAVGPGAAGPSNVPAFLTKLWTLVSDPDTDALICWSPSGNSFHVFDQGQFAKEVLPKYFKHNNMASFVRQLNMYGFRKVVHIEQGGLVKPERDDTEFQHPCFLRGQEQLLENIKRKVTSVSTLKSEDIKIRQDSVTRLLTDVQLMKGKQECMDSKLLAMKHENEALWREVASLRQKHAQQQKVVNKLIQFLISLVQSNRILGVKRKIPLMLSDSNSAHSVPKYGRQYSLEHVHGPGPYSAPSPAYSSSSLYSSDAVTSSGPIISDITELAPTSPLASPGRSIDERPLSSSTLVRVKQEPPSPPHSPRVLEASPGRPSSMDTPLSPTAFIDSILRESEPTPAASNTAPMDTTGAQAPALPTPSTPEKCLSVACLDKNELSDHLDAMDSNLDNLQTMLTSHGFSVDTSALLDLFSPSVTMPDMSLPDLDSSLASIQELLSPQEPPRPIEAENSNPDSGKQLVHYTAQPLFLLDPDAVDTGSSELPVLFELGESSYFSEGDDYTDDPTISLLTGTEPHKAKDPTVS

[3] = molecular target: T3, Low molecular weight phosphotyrosine protein phosphatase (Homo sapiens, UniProt P24666); type: functional; conditions: read-out: IC50_Mean
T3 sequence (P24666 whole entry): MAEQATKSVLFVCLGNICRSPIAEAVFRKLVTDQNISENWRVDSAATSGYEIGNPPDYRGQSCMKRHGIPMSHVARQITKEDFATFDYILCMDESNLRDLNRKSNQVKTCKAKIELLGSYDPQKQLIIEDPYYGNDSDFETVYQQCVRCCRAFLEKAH

[4] = molecular target: T1, Corticotropin-releasing factor receptor 2/Corticotropin-releasing factor-binding protein; experiment: Dose Response confirmation of uHTS hits for small molecule antagonists of the CRF-binding protein and CRF-R2 receptor complex.; type: functional; conditions: read-out: IC50_Mean
[5] = molecular target: T3, Low molecular weight phosphotyrosine protein phosphatase; type: functional; conditions: read-out: IC50_Mean; remark: listed apart in the source
[6] = molecular target: T4, Probable nicotinate-nucleotide adenylyltransferase (Staphylococcus aureus (strain N315), UniProt P65502); type: functional, Staphylococcus aureus subsp. aureus N315;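 for IC50 Mean: confirmatory dose-response retesting of NadD inhibitor hits first found in an ultra-high-throughput screen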
[7] = molecular target: T4, Probable nicotinate-nucleotide adenylyltransferase; type: functional, Staphylococcus aureus subsp. aureus N315; conditions: read-out: IC50_Mean
[8] = molecular target: T5, Trace amine-associated receptor 1 (Homo sapiens, UniProt Q96RJ0); experiment: Counterscreen for agonists of the human trace amine associated receptor 1 (hTAAR1): Fluorescence-based cell-based high throughput dose response assay to identify hTAAR1 agonist that also desensitize TAAR1 receptor response.; type: functional
T5 sequence (Q96RJ0 whole entry): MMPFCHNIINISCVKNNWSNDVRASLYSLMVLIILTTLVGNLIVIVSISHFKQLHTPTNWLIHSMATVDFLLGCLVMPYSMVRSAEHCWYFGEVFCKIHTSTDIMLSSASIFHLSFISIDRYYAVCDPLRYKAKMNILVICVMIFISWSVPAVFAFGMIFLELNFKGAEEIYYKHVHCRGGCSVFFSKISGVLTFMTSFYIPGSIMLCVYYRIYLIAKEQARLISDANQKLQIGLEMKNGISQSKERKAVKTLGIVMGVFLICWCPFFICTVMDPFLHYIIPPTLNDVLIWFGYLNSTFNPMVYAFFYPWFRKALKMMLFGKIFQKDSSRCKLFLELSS

[9] = molecular target: T5, Trace amine-associated receptor 1; experiment: Fluorescence-based cell-based high throughput dose response assay to identify agonists of the human trace amine associated receptor 1 (TAAR1).; type: functional
[10] = cells; type: functional, cell-based
[11] = cells; type: functional, cell-based; remark: listed apart in the source
[12] = molecular target: T6, Hepatocyte nuclear factor 4-alpha (Homo sapiens, UniProt P41235); type: functional, cell-based;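 note: biochemical luminescence-based dose-response counterscreen measuring inhibition of HNF4 dimerization, run alongside a screen for blockers of ABHD5–perilipin-5 interaction; split luciferase complementation of HNF4 fusion proteins in cell lysate measuring dimerization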
T6 sequence (P41235 whole entry): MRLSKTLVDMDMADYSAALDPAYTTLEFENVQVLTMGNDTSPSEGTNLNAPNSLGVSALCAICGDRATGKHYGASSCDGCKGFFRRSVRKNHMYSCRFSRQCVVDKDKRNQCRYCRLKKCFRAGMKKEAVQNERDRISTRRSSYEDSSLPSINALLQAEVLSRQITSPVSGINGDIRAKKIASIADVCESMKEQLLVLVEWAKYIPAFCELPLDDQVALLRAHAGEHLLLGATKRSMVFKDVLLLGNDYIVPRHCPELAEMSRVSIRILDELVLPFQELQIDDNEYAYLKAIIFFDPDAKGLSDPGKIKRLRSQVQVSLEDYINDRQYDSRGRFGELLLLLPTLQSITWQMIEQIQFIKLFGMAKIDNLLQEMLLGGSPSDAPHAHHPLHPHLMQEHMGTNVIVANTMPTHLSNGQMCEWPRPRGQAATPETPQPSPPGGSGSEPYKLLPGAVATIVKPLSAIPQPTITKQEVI

[13] = molecular target: T7, Caspase-3 (Homo sapiens, UniProt P42574); type: functional;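 note: Dose-response selectivity test against caspase-3 for candidate inhibitors of sentrin-specific proteases (SENPs)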
T7 sequence (P42574 whole entry): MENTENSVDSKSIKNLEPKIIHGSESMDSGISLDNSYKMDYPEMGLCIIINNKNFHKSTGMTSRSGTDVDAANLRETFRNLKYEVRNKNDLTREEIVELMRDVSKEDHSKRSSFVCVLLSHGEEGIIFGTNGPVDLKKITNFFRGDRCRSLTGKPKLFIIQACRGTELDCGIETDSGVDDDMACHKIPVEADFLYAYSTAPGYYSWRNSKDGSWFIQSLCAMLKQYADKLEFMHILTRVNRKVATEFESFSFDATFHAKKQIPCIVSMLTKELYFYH

[14] = molecular target: T8, Sentrin-specific protease 8 (Homo sapiens, UniProt Q96LD8); type: functional;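 note: luminescence read-out of SENP8 inhibition, dose-response confirmation following an ultra-high-throughput screen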
T8 sequence (Q96LD8 whole entry): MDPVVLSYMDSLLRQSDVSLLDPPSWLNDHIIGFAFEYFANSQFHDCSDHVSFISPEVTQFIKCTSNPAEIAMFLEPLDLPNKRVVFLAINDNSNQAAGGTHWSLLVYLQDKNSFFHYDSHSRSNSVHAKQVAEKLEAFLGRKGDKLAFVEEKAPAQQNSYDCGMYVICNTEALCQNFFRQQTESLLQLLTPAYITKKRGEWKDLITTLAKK

[15] = molecular target: T9, Sentrin-specific protease 6 (Homo sapiens, UniProt Q9GZR1); type: functional;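 note: Luminescence-based dose-response confirmatory assay of SENP6 inhibition, following up an ultra-high-throughput screen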
T9 sequence (Q9GZR1 whole entry): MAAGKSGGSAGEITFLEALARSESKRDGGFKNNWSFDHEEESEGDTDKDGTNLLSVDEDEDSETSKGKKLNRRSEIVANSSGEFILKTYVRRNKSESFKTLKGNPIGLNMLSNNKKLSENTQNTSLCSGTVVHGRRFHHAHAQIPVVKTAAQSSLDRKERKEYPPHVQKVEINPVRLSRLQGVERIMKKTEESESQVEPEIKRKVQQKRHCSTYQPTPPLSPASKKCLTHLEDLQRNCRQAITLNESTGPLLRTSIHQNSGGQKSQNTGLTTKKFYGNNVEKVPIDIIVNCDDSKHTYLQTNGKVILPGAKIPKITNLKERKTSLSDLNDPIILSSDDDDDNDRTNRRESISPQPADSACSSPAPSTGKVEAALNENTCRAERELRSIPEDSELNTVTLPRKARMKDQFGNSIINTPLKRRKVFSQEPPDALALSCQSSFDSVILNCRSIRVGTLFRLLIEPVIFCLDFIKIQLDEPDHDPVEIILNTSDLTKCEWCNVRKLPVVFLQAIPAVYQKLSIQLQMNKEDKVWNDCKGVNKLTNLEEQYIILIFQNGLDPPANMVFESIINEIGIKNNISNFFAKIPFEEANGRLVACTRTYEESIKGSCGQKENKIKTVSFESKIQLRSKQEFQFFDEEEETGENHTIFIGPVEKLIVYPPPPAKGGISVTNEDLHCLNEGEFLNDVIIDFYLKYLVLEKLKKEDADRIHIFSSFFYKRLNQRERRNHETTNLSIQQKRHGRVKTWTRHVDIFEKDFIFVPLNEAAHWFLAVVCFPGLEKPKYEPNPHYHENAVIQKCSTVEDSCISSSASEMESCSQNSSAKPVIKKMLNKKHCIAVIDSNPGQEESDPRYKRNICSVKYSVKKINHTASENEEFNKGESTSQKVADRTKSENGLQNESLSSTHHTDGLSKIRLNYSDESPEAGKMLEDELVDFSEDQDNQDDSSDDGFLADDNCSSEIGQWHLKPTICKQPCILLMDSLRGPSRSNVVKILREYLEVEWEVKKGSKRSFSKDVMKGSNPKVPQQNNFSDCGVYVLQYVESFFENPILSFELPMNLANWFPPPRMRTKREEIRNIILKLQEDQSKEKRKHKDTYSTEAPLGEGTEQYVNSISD

[16] = test system: Vero; experiment: Vero cell cytotoxicity, cytotoxicity control for flavivirus capping enzyme inhibitors (AID 588742); type: functional; conditions: Chlorocebus sabaeus
[17] = molecular target: T10, Sentrin-specific protease 7 (Homo sapiens, UniProt Q9BQF6); type: functional;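 note: Luminescence-based dose-response confirmation of ultra-high-throughput screening hits, measuring inhibition of SENP7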
T10 sequence (Q9BQF6 whole entry): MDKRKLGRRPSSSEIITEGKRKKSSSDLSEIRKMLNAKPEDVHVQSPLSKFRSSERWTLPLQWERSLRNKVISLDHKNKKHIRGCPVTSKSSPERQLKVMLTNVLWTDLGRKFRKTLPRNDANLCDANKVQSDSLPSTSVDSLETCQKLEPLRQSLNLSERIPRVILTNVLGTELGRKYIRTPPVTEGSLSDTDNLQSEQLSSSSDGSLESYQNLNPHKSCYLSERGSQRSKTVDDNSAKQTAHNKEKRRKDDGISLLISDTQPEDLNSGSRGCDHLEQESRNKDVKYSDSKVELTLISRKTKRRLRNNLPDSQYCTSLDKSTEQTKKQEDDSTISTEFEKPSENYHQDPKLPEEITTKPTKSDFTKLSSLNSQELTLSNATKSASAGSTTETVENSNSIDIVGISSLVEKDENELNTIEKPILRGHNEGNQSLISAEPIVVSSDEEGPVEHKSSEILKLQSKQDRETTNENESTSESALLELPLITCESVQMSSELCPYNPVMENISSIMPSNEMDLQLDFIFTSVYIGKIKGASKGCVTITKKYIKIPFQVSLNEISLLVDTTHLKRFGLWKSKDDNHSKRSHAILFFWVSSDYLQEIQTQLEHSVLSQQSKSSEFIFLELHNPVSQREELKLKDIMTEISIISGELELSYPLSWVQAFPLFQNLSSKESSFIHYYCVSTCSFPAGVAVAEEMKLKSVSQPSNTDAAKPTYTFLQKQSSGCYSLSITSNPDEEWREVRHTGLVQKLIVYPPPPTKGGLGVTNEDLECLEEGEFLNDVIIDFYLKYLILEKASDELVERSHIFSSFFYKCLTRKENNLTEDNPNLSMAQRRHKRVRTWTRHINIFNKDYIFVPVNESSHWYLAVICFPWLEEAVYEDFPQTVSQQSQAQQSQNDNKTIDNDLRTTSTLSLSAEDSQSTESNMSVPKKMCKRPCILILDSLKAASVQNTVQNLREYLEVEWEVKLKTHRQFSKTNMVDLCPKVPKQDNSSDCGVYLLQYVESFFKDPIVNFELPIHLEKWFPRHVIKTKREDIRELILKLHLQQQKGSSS

[18] = Luminescence Cell-Based Dose Retest to Confirm Inhibitors of Cancer Stem Cells. [Related pubchem assays (depositor defined):AID2717, AID2721]; type: functional; conditions: Homo sapiens
[19] = molecular target: Genome polyprotein (dengue virus type 2, UniProt P29990); experiment: Dengue-2 NS5 methyltransferase inhibitors, primary screen, biochemical, confirmation dose response (AID 588689); type: functional
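Throughout, for AC50: cells exposed to compound for roughly 70 hours or longer before luminescence read.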

Chain of Genome polyprotein (P29990 2492-3391 limits assumed): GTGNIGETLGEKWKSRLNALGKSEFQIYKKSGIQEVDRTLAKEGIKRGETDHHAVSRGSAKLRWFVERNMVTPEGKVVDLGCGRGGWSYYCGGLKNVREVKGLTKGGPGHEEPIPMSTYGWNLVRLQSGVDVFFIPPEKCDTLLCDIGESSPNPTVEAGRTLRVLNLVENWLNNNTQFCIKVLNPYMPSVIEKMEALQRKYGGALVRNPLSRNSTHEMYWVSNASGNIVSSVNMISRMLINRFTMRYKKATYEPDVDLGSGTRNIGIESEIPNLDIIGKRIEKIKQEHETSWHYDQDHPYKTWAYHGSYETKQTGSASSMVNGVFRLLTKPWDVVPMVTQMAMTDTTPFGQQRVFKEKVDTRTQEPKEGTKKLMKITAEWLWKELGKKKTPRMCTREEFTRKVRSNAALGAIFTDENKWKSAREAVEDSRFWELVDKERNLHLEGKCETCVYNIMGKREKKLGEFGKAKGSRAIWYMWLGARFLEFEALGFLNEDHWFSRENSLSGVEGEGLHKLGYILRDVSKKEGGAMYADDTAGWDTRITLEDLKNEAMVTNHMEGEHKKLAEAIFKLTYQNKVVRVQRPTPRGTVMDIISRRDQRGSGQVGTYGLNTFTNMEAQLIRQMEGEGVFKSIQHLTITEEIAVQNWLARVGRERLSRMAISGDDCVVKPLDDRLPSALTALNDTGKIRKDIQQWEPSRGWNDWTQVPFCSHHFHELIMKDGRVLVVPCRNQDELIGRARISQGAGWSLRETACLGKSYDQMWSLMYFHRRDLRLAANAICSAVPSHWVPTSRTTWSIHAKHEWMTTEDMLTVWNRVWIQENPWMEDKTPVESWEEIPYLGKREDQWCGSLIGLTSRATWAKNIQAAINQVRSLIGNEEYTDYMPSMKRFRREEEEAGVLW

Structure (SMILES): Cc1ccc(-c2cc(-c3ccccc3Cl)c(C#N)c(N)n2)o1
IC50 [6]: 5.05 µM (active) | IC50 [7]: 7.76 µM (active)

Structure (SMILES): COc1ccc(C(c2nnnn2CCc2ccccc2)N2CCN(C3CCCC3)CC2)cc1 (stereo not given)
IC50 [8]: 8.17 µM (active) | EC50 [9]: 1.62 µM (active) | EC50 [10]: > 29.9 µM (inactive) | IC50 [11]: > 29.9 µM (inactive)

Structure (SMILES): COc1ccc(NC(=O)c2cc3ccccc3cc2O)cc1
IC50 [13]: 20.7 µM (active) | IC50 [14]: > 100 µM (inactive) | IC50 [15]: 72.6 µM (active) | CC50 [16]: 34.6 µM (active) | IC50 [12]: 10 µM (inactive) | IC50 [17]: 5.51 µM (active) | AC50 [18]: 6.04 µM (active) | IC50 [19]: > 100 µM (active)

Other lines, results leading:

EC50 [1]: > 53 µM (inactive) | EC50 [2]: > 195 µM (not active) | IC50 [3]: 67.8 µM (inactive) | IC50 [4]: > 47.1 µM (inactive) | IC50 [5]: 27 µM (inactive)
Structure (SMILES): Cc1[nH]c(=O)c(C#N)cc1-c1csc(-c2ccccc2)n1

IC50 [12]: 2.93 µM (active)
Structure (SMILES): O=C(NCc1ccccc1)C(c1ccccc1)n1c(=O)c(-c2ccco2)nc2ccccc21 (stereo not given)
